Results: patent US11891405B2, “Furo[3,4-b]pyrrole-containing BTK inhibitor” (CHIA TAI TIANQING PHARMACEUTICAL GROUP CO., LTD., priority 2018, dated 2024)

Tests used:
[1] = Human liver microsome metabolic stability; format: in vitro ADME; conditions: human liver microsomes
Protocol: 3.1 Human Liver Microsome Assay
300 μL of final incubation system: 30 μL of human liver microsomes (protein concentration: 5 mg/mL, XENOTECH, USA), 30 μL of NADPH (10 mM)+MgCl2 (5 mM), 3 μL of the substrate, i.e., the example compound (dissolved in 50% aqueous acetonitrile solution, 100 μM), and 237 μL of PBS buffer, wherein the proportion of the organic solvent (acetonitrile) was 0.5%. Each tube was added with 270 μL of a mixed solution of substrate and enzyme, and after being pre-incubated at 37° C. for 5 min, added with 30 μL of NADPH+MgCl2. Then 50 μL of the mixture was taken at 0 min, 15 min, 30 min and 60 min, and added with 300 μL of diazepam glacial acetonitrile (20 ng/mL) containing an internal standard to quench the reaction. The reaction mixture was vortexed for 5 min, and centrifuged (13,000 rpm, 4° C.) for 10 min. 100 μL of supernatant was pipetted into a sample vial, from which 1 μL of supernatant was injected and analyzed by LC-MS/MS, and the residual percentage was calculated.

[2] = target: T1, BTK (Y223) phosphorylation in Ramos lymphoma cells (Homo sapiens, UniProt Q06187); test: BTK (Y223) phosphorylation inhibition at cell level; format: cell-based
T1 construct: Ramos lymphoma cells in logarithmic growth phase were centrifuged; endogenous in cells; host or cells: Ramos lymphoma cells
Protocol: EXPERIMENTAL EXAMPLE 2: SCREENING FOR BTK (Y223) PHOSPHORYLATION INHIBITION ACTIVITY AT CELL LEVEL
20 μL of 30% hydrogen peroxide was added in 860 μL of double distilled water to prepare 200 mM hydrogen peroxide. PV (sodium pervanadate): 10 μL of 200 mmol/L sodium orthovanadate was reacted with 10 μL of 200 mmol/L hydrogen peroxide in 80 μL of RPMI 1640 complete medium at room temperature for 15 min, and the reaction solution was diluted with RPMI 1640 complete medium to 6 mM. It was prepared freshly prior to use. Ramos lymphoma cells in logarithmic growth phase were centrifuged at 1500 rpm for 3 min using a low-speed centrifuge, added with a proper amount of RPMI 1640 complete medium, resuspended and counted. A proper amount of corresponding culture medium was added to a proper amount of cell suspension to adjust the cell density to about 1-2×10E7 cells/mL. The cells at the above cell density were seeded in a 384-well plate at 20 μL/well, then 5 μL of compound was added to each well, and the plate was incubated for 1 h. 20 mM PV was diluted with RPMI 1640 complete medium to 6 mM (final concentration: 1 mM), added to wells at 5 μL/well according to the plate distribution, and incubated for 15-20 min. The blank group was wells seeded with cells, without compound and PV, and the control group was wells seeded with cells, without compound and with PV. 10 μL of lysis buffer (4×) containing blocking buffer was added immediately and incubated by shaking at room temperature for 30 min. After the mixture was mixed, 16 μL of lysate was transferred to another 384-well small-volume white plate. The plate was added with 4 μL of pre-mixed antibody (vol/vol) in assay buffer, covered, centrifuged to mix well, and incubated overnight at room temperature. The 665 nm/620 nm signal value was detected using a PE Envision multi-functional microplate reader, and IC50 was calculated by four-parameter fitting.

ITK = target: T2, ITK (Homo sapiens, UniProt Q08881); test: Screening for ITK inhibition activity; format: biochemical
T2 sequence (Q08881 1-620): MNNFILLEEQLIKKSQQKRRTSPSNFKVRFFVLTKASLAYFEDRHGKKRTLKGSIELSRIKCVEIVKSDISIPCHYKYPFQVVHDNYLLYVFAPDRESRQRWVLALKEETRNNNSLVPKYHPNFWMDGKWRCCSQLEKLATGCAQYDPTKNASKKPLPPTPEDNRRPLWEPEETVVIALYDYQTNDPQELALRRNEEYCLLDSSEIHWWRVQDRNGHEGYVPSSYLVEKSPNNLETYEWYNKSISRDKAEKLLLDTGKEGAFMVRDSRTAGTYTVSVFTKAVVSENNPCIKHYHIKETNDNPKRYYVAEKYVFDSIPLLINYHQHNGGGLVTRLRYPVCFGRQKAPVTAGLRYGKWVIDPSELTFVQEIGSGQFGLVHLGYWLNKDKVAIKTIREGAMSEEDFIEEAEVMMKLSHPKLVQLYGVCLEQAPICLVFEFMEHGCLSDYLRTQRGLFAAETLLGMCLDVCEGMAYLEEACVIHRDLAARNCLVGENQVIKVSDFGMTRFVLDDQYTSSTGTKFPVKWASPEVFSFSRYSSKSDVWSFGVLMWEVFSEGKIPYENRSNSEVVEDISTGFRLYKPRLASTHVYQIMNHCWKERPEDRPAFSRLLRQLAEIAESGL
Protocol: 1.4 Screening for ITK ([…]) Inhibition Activity
50 ng/μL ITK stock solution was diluted with kinase buffer (50 mM HEPES, 10 mM MgCl2, 2 mM DTT, 1 mM EGTA, 0.01% Tween 20), and 6 μL of 1.67× working solution at […] (final concentration: 0.05ng/μL) was added to each well. Different compounds dissolved in DMSO were added to the wells using a nanoliter pipettor, resulting in the final concentration of 1000 nM to 0.24 nM (4-fold gradient for 7 concentrations in total), and blank control wells (without enzyme) and negative control wells (with enzyme, plus vehicle DMSO) were set. After enzyme was reacted with the compound or vehicle for 30 min, 5×ATP at 50 μM (final concentration: 10 μM) prepared with kinase buffer was mixed with 5× substrate at 0.5 μM (final concentration: 0.1 μM, ULight-poly GT) at a ratio of 1:1, and the mixture was added to each well at 4 μL/well. After being sealed with a film, the plate was incubated at room temperature for 2 h, then 5 μL of 4×EDTA at 40 mM (final concentration: 10 mM) was added to each well. After the plate was incubated for 5 min at room temperature, 5 μL of 4×detection reagent at 8 nM (final concentration: 2 nM, Eu-anti-phospho-tyrosine antibody) was added to each well, followed by incubation at room temperature for 1 h. The plate was read using a PE Envision multi-functional microplate reader (excitation: 320 nm, emission: 665 nm), and IC50 was calculated by four-parameter fitting.

T1 sequence (Q06187 whole entry): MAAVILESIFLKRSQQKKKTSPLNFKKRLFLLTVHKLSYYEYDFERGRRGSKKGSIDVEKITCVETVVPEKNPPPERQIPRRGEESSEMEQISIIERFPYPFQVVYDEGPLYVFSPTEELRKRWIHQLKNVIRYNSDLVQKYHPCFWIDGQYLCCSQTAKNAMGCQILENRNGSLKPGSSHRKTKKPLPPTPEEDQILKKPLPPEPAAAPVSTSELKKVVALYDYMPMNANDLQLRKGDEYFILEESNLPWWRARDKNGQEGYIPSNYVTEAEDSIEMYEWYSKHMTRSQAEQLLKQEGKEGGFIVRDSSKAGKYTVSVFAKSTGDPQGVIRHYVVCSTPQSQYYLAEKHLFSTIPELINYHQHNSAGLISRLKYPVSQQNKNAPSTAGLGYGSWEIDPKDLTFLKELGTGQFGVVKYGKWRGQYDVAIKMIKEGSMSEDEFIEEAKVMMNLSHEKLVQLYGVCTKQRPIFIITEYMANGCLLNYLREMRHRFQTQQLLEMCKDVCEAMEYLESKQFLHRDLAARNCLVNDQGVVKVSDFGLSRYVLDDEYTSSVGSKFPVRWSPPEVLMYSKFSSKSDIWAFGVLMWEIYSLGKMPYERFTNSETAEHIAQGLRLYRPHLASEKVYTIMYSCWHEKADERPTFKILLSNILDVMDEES

SMILES	Human (HLM) Remaining % (T = 60 min) [1] [%]	IC50 [2] [nM]	IC50 (ITK) [nM]
CC#CC(=O)N1[C@@H]2COC[C@@H]2C[C@H]1c1nc(-c2ccc(C(=O)Nc3ccccn3)cc2)c2c(N)nccn12 [Compound I-1, 4-(8-amino-3-((2S,3aR,6aS)-1-(but-2-ynoyl)hexahydro-1H-furo[3,4-b]pyrrol-2-yl)imidazo [1,5-a]pyrazin-1-yl)-N-(pyridin-2-yl)benzamide]	89	30	> 1000
C=CC(=O)N1[C@@H]2COC[C@@H]2C[C@H]1c1nc(-c2ccc(C(=O)Nc3ccccn3)cc2)c2c(N)nccn12 [Compound I-3, 4-(3-((2S,3AR,6AS)-1-ACRYLOYLHEXAHYDRO-1H-FURO[3,4-B]PYRROL-2-YL)-8-AMINOIMIDAZO [1,5-A]PYRAZIN-1-YL)-N-(PYRIDIN-2-YL)BENZAMIDE]	74	25	> 1000
CC#CC(=O)N1[C@@H]2COC[C@@H]2C[C@H]1c1nc(-c2ccc(C(=O)Nc3cc(C(F)(F)F)ccn3)cc2F)c2c(N)nccn12 [Compound I-4, 4-(8-AMINO-3-((2S,3AR,6AS)-1-(BUT-2-YNOYL)HEXAHYDRO-1H-FURO[3,4-B]PYRROL-2-YL)IMIDAZO[1,5-A]PYRAZIN-1-YL)-3-FLUORO-N-(4-(TRIFLUOROMETHYL)PYRIDIN-2-YL)BENZAMIDE]	15	66	> 1000
Nc1nccn2c([C@@H]3C[C@H]4COC[C@H]4N3C(=O)C3CC3)nc(-c3ccc(C(=O)Nc4cc(C(F)(F)F)ccn4)cc3F)c12 [Compound I-7, 4-(8-AMINO-3-((2S,3AR,6AS)-1-(CYCLOPROPANECARBONYL)HEXAHYDRO-1H-FURO[3,4-B]PYRROL-2-YL)IMIDAZO[1,5-A]PYRAZIN-1-YL)-3-FLUORO-N-(4-(TRIFLUOROMETHYL)PYRIDIN-2-YL)BENZAMIDE]	29.9	52	> 1000
